Here are results for five compounds from patent publication US20250382344A1, “Soluble GLP1/GIP/NPY2 Receptor Triple Agonists” (Boehringer Ingelheim International GmH, priority 2024, published 2025).

pEC50: −log10 of the molar value. Like-named read-outs stand apart in the source and are kept apart here.

Data set [1] has as its target T1, hGIPR (Homo sapiens, UniProt P48546).
T1 construct: expressed in transfected cells; host or cells: CHO CRE-luciferase reporter cells
T1 sequence (P48546 22-466): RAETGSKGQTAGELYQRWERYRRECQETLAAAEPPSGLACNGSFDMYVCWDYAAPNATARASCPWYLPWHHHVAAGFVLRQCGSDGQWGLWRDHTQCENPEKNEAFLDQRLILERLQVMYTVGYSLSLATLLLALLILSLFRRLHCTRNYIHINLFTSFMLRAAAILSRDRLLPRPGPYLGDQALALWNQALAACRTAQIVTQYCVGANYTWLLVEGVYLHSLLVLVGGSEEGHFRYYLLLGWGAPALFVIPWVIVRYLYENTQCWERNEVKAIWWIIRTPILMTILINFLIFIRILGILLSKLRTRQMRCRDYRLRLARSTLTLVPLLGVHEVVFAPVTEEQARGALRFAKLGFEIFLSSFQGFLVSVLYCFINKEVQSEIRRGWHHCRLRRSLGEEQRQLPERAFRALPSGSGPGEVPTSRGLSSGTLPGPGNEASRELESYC
The data set can be described thus: hGIPR CreLuc assay in 0.5% and 100% plasma (CHO CRE-luciferase reporter cells). The format is cell-based. The conditions noted are these: 0.5% human plasma, read-out: hGIPR 0.5% hP.

Data set [2] is described as follows: Solubility in 0.1 M phosphate buffer at pH 7. Format: physicochemical. The settings on record: 0.1 M phosphate buffer at pH 7, 10 mg/mL final peptide concentration, shaking 2 hours at room temperature, peptides as TFA-salts; measured sample pH 6.5-7.0.
The target in data set [3] is T2, hGLP1R (Homo sapiens, UniProt P43220).
T2 construct: expressed in transfected cells; host or cells: HEK-293 CRE-luciferase reporter cells
Briefly: hGLP1R CreLuc assay in 0.5% and 100% plasma (HEK-293 CRE-luciferase reporter cells). Format: cell-based. The conditions noted are these: 0.5% human plasma, HEK-293 reporter cells; for pEC50: read-out: hGLP1R 0.5% hP. The text has this:
CHO and HEK-293 recombinant cell lines express a luciferase reporter gene under control of the CAMP responsive element (CRE). As a second recombinant protein the GLP-1 and NPY2 receptors were expressed in the reporter gene HEK cells, and the GIP receptor was expressed in the reporter gene CHO cells, respectively. Stimulation of these recombinant cells with an agonist leads to an increase of intracellular CAMP levels. In the presence of CAMP, the transcription factor CRE binding protein (CREB) binds to the CRE and to the CREB binding protein (CBP), which leads to transcription of the luciferase reporter gene. Peptides upon serial-dilution in 100% DMSO were transferred into 384-well assay plates with 5 μl pre-dispensed assay buffer (1×HBSS, 20 mM HEPES, pH7.4 supplemented with 0.5% human plasma) using acoustic dispensing on a Labcyte ECHO. Cryo-preserved transgenic reporter gene cells were thawed in assay buffer. 20 μl (10.000 cells/well) were added to the plate with the peptides and incubated for 4 hours at 37° C. in a humidified incubator. Following incubation, assay plates are equilibrated to room temperature, followed by addition of 25 μl of Bright-Glo™ Luciferase reagent, incubation at room temperature for 10 minutes and analysis of luminescence (Envision Reader). […] EC50 values were calculated by non-linear regression using sigmoid concentration-response with variable slope.
The same assays were run in the presence of 100% plasma with no additional buffer constituents.

T2 sequence (P43220 24-463): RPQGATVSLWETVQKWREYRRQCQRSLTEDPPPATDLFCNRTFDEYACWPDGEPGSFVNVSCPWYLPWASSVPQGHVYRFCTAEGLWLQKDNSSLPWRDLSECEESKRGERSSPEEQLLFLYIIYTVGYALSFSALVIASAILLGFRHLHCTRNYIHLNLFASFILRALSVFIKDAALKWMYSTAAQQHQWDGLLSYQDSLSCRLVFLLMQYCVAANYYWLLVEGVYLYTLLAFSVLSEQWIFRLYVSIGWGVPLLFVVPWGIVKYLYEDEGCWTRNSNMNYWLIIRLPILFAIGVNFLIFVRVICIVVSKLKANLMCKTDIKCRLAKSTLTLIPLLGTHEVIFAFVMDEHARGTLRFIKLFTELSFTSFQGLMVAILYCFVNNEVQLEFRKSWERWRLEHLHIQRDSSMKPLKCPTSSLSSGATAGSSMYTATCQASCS

Regarding `CC[C@H](C)[C@H](NC(=O)[C@H](CC(C)C)NC(=O)[C@H](Cc1c[nH]cn1)NC(=O)[C@H](CCCNC(=N)N)NC(=O)[C@@H](NC(=O)[C@H](Cc1ccccc1)NC(=O)[C@H](C)NC(=O)C(C)(C)NC(=O)[C@H](CCC(N)=O)NC(=O)[C@H](C)NC(=O)[C@H](CCC(N)=O)NC(=O)[C@H](CCCCN)NC(=O)[C@H](CCC(=O)O)NC(=O)[C@H](CC(C)C)NC(=O)C(C)(C)NC(=O)[C@@H](NC(=O)[C@H](CO)NC(=O)[C@H](Cc1ccc(O)cc1)NC(=O)[C@H](CC(=O)O)NC(=O)[C@H](CO)NC(=O)[C@@H](NC(=O)[C@H](Cc1ccccc1)NC(=O)[C@@H](NC(=O)CNC(=O)[C@H](CCC(=O)O)NC(=O)C(C)(C)NC(=O)[C@@H](N)Cc1ccc(O)cc1)[C@@H](C)O)[C@@H](C)O)[C@@H](C)CC)C(C)C)C(=O)N[C@@H](CC(N)=O)C(=O)N[C@@H](CCCCNC(=O)CC[C@H](NC(=O)CC[C@H](NC(=O)CC[C@H](NC(=O)CC[C@H](NC(=O)CC[C@H](NC(=O)CC[C@H](NC(=O)CCCCCCCCCCCCCCCCC(=O)O)C(=O)O)C(=O)O)C(=O)O)C(=O)O)C(=O)O)C(=O)O)C(=O)NC(C)(C)C(=O)N[C@H](C(=O)N[C@@H](CCCNC(=N)N)C(=O)N(C)[C@@H](CCC(N)=O)C(=O)N[C@@H](CCCNC(=N)N)C(=O)N[C@@H](Cc1ccc(O)cc1)C(N)=O)[C@@H](C)O` [Compound 2, Y-Aib-E-G-T-F-T-S-D-Y-S-I-Aib-L-E-K-Q-A-Q-Aib-A-F-V-R-H-L-I-N-K(1,3)-Aib-T-R-NMeQ-R-Y-NH2.C18DA-gGlu-gGlu-gGlu-gGlu-gGlu-gGlu(1,2)], the pEC50 in data set [1] was 9.40; in data set [3], 9.10. In addition, the solubility at 2 h in data set [2] is 5 mg/mL.

As to `CC[C@H](C)[C@H](NC(=O)[C@H](CC(C)C)NC(=O)[C@H](Cc1c[nH]cn1)NC(=O)[C@H](CCCNC(=N)N)NC(=O)[C@@H](NC(=O)[C@H](Cc1ccccc1)NC(=O)[C@H](C)NC(=O)C(C)(C)NC(=O)[C@H](CCC(N)=O)NC(=O)[C@H](C)NC(=O)[C@H](CCC(N)=O)NC(=O)[C@H](CCCCN)NC(=O)[C@H](CCC(=O)O)NC(=O)[C@H](CC(C)C)NC(=O)C(C)(C)NC(=O)[C@@H](NC(=O)[C@H](CO)NC(=O)[C@H](Cc1ccc(O)cc1)NC(=O)[C@H](CC(=O)O)NC(=O)[C@H](CO)NC(=O)[C@@H](NC(=O)[C@H](Cc1ccccc1)NC(=O)[C@@H](NC(=O)CNC(=O)[C@H](CCC(=O)O)NC(=O)C(C)(C)NC(=O)[C@@H](N)Cc1ccc(O)cc1)[C@@H](C)O)[C@@H](C)O)[C@@H](C)CC)C(C)C)C(=O)N[C@@H](CC(N)=O)C(=O)N[C@@H](CCCCNC(=O)COCCOCCNC(=O)CC[C@H](NC(=O)CC[C@H](NC(=O)CC[C@H](NC(=O)CC[C@H](NC(=O)CC[C@H](NC(=O)CCCCCCCCCCCCCCCCC(=O)O)C(=O)O)C(=O)O)C(=O)O)C(=O)O)C(=O)O)C(=O)N[C@@H](CC(C)C)C(=O)N[C@H](C(=O)N[C@@H](CCCNC(=N)N)C(=O)N[C@@H](CCC(N)=O)C(=O)N[C@@H](CCCNC(=N)N)C(=O)N[C@@H](Cc1ccc(O)cc1)C(N)=O)[C@@H](C)O` [Compound 7, Y-Aib-E-G-T-F-T-S-D-Y-S-I-Aib-L-E-K-Q-A-Q-Aib-A-F-V-R-H-L-I-N-K(1,3)-L-T-R-Q-R-Y-NH2.C18DA-gGlu-gGlu-gGlu-gGlu-gGlu-OEG(1,2)], the pEC50 was 9.40 in data set [1] and 9.15 in data set [3]. In data set [2], the solubility at 2 h is 4.5 mg/mL.

With `CC[C@H](C)[C@H](NC(=O)[C@H](CC(C)C)NC(=O)[C@H](Cc1c[nH]cn1)NC(=O)[C@H](CCCNC(=N)N)NC(=O)[C@@H](NC(=O)[C@H](Cc1ccccc1)NC(=O)[C@H](C)NC(=O)C(C)(C)NC(=O)[C@H](CCC(N)=O)NC(=O)[C@H](C)NC(=O)[C@H](CCC(N)=O)NC(=O)[C@H](CCCCN)NC(=O)[C@H](CCC(=O)O)NC(=O)[C@H](CC(C)C)NC(=O)C(C)(C)NC(=O)[C@@H](NC(=O)[C@H](CO)NC(=O)[C@H](Cc1ccc(O)cc1)NC(=O)[C@H](CC(=O)O)NC(=O)[C@H](CO)NC(=O)[C@@H](NC(=O)[C@H](Cc1ccccc1)NC(=O)[C@@H](NC(=O)CNC(=O)[C@H](CCC(=O)O)NC(=O)C(C)(C)NC(=O)[C@@H](N)Cc1ccc(O)cc1)[C@@H](C)O)[C@@H](C)O)[C@@H](C)CC)C(C)C)C(=O)N[C@@H](CC(N)=O)C(=O)N[C@@H](CCCCNC(=O)CC[C@H](NC(=O)CC[C@H](NC(=O)CC[C@H](NC(=O)CC[C@H](NC(=O)CC[C@H](NC(=O)CC[C@H](NC(=O)CCCCCCCCCCCCCCCCC(=O)O)C(=O)O)C(=O)O)C(=O)O)C(=O)O)C(=O)O)C(=O)O)C(=O)N[C@@H](CC(C)C)C(=O)N[C@H](C(=O)N[C@@H](CCCNC(=N)N)C(=O)N[C@@H](CCC(N)=O)C(=O)N[C@@H](CCCNC(=N)N)C(=O)N[C@@H](Cc1ccc(O)cc1)C(N)=O)[C@@H](C)O` [Compound 12, Y-Aib-E-G-T-F-T-S-D-Y-S-I-Aib-L-E-K-Q-A-Q-Aib-A-F-V-R-H-L-I-N-K(1,3)-L-T-R-Q-R-Y-NH2.C18DA-gGlu-gGlu-gGlu-gGlu-gGlu-gGlu(1,2)], the values for the pEC50 in data set [1] and in data set [3] were 9.10 and 8.74, respectively. Further, the solubility at 2 h in data set [2] came to 5 mg/mL.

For the compound `CC[C@H](C)[C@H](NC(=O)[C@H](CC(C)C)NC(=O)[C@H](Cc1c[nH]cn1)NC(=O)[C@H](CCCNC(=N)N)NC(=O)[C@@H](NC(=O)[C@H](Cc1ccccc1)NC(=O)[C@H](C)NC(=O)C(C)(C)NC(=O)[C@H](CCC(N)=O)NC(=O)[C@H](C)NC(=O)[C@H](CCC(N)=O)NC(=O)[C@H](CCCCN)NC(=O)[C@H](CCC(=O)O)NC(=O)[C@H](CC(C)C)NC(=O)C(C)(C)NC(=O)[C@@H](NC(=O)[C@H](CO)NC(=O)[C@H](Cc1ccc(O)cc1)NC(=O)[C@H](CC(=O)O)NC(=O)[C@H](CO)NC(=O)[C@@H](NC(=O)[C@H](Cc1ccccc1)NC(=O)[C@H](CCC(=O)O)NC(=O)CNC(=O)[C@H](CCC(=O)O)NC(=O)C(C)(C)NC(=O)[C@@H](N)Cc1ccc(O)cc1)[C@@H](C)O)[C@@H](C)CC)C(C)C)C(=O)N[C@@H](CC(N)=O)C(=O)N[C@@H](CCCCNC(=O)[C@@H](N)CCCCNC(=O)CC[C@H](NC(=O)CC[C@H](NC(=O)CC[C@H](NC(=O)CC[C@H](NC(=O)CC[C@H](NC(=O)CC[C@H](NC(=O)CCCCCCCCCCCCCCCCC(=O)O)C(=O)O)C(=O)O)C(=O)O)C(=O)O)C(=O)O)C(=O)O)C(=O)NC(C)(C)C(=O)N[C@H](C(=O)N[C@@H](CCCNC(=N)N)C(=O)N[C@@H](CCC(N)=O)C(=O)N[C@@H](CCCNC(=N)N)C(=O)N[C@@H](Cc1ccc(O)cc1)C(N)=O)[C@@H](C)O` [Compound 54, Y-Aib-E-G-E-F-T-S-D-Y-S-I-Aib-L-E-K-Q-A-Q-Aib-A-F-V-R-H-L-I-N-K(1,3)-Aib-T-R-Q-R-Y-NH2.C18DA-gGlu-gGlu-gGlu-gGlu-gGlu-gGlu-eLys(1,2)], in data set [2], the solubility at 2 h was found to be 9.6 mg/mL. In addition, in data set [3], the pEC50 was 8.47.

Consider `CC[C@H](C)[C@H](NC(=O)[C@H](CO)NC(=O)[C@H](CC(C)C)NC(=O)[C@H](CC(=O)O)NC(=O)[C@H](CO)NC(=O)[C@@H](NC(=O)[C@H](Cc1ccccc1)NC(=O)[C@@H](NC(=O)CNC(=O)[C@H](CCC(=O)O)NC(=O)C(C)(C)NC(=O)[C@@H](N)Cc1ccc(O)cc1)[C@@H](C)O)[C@@H](C)O)C(=O)NC(C)(C)C(=O)N[C@@H](CC(C)C)C(=O)N[C@@H](CCC(=O)O)C(=O)N[C@@H](CCCCN)C(=O)N[C@@H](CCC(N)=O)C(=O)N[C@@H](C)C(=O)N[C@@H](CCC(N)=O)C(=O)NC(C)(C)C(=O)N[C@@H](C)C(=O)N[C@@H](Cc1ccccc1)C(=O)N[C@H](C(=O)N[C@@H](CCCNC(=N)N)C(=O)N[C@@H](Cc1c[nH]cn1)C(=O)N[C@@H](CC(C)C)C(=O)N[C@@H](CC(C)C)C(=O)N[C@@H](CC(N)=O)C(=O)N[C@@H](CCCCNC(=O)[C@@H](N)CCCCNC(=O)CC[C@H](NC(=O)CC[C@H](NC(=O)CC[C@H](NC(=O)CC[C@H](NC(=O)CC[C@H](NC(=O)CC[C@H](NC(=O)CCCCCCCCCCCCCCCCCCC(=O)O)C(=O)O)C(=O)O)C(=O)O)C(=O)O)C(=O)O)C(=O)O)C(=O)NC(C)(C)C(=O)N[C@H](C(=O)N[C@@H](CCCNC(=N)N)C(=O)N[C@@H](CCC(N)=O)C(=O)N[C@@H](CCCNC(=N)N)C(=O)N[C@@H](Cc1ccc(O)cc1)C(N)=O)[C@@H](C)O)C(C)C` [Compound 115, Y-Aib-E-G-T-F-T-S-D-L-S-I-Aib-L-E-K-Q-A-Q-Aib-A-F-V-R-H-L-L-N-K(1,3)-Aib-T-R-Q-R-Y-NH2.C20DA-gGlu-gGlu-gGlu-gGlu-gGlu-gGlu-eLys(1,2)], for which, in data set [2], the solubility at 2 h worked out at 8.2 mg/mL. This compound also gave a 50% effective concentration (EC50) in data set [3] (hGLP1R 0.5% hP (nM)) of 7 nM.
